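Step 1: Grow cells in 96-well plates. Step 2: Expose to compound for 48 hours at 5 concentrations. Step 3: Interpolate endpoints linearly; if unreached, use highest concentration. GI50 is the concentration that inhibits growth by half. TGI: total growth inhibition.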

We go through 5 molecules from PubChem BioAssay (NCI).

Test systems include HL-60(TB) leukemia; RXF 393 renal; SNB-75 CNS; DMS 114 small cell lung; NCI-H522 lung; UO-31 renal; XF 498 CNS; KM20L2 colon; M19-MEL melanoma; SNB-78 CNS; DMS 273 small cell lung; DLD-1 colon; P388/ADR leukemia; SN12K1 renal; BT-549 breast; MDA-MB-435; HS 578T breast.
Holding throughout (assay): NCI tumour cell line growth inhibition, 48 h

`CC(CNc1nc(Nc2ccc(Cl)c(Cl)c2)nc(C(Cl)(Cl)Cl)n1)N(C)C` (stereo unspecified): the GI50 in the assay on HL-60(TB) leukemia is 1.69 µM; in the assay with RXF 393 renal it was 1.52 µM; with SNB-75 CNS it was 1.53 µM. Further, the TGI in the assay on HL-60(TB) leukemia is 3.54 µM; in the assay on RXF 393 renal, 2.88 µM; in the assay with SNB-75 CNS, 4.7 µM.
Turning to `CC1CC(c2ccc([N+](=O)[O-])cc2)=Nc2ccccc2S1=O` (stereo unspecified), the TGI was determined as 50.5 µM with HL-60(TB) leukemia; 33.2 µM in the assay with DMS 114 small cell lung; 25.9 µM in the assay on NCI-H522 lung; 26.3 µM with UO-31 renal; 95.1 µM with XF 498 CNS; 23.6 µM in the assay with RXF 393 renal. Further, the TGI with SNB-75 CNS was 53.2 µM; with KM20L2 colon it was 29.9 µM; in the assay with M19-MEL melanoma, 30.8 µM; with SNB-78 CNS, above 100 µM; with DMS 273 small cell lung, 42.7 µM; with DLD-1 colon it was 33.6 µM.
Regarding `C/C=C1/C(=O)O[C@]23C=C[C@@H]4C(C(=O)OC)=CO[C@H](O[C@@H]12)[C@@H]43`, the TGI worked out at 3.06 µM in the assay with HL-60(TB) leukemia; 2.82 µM with DMS 114 small cell lung; 2.19 µM in the assay with NCI-H522 lung; 6.98 µM in the assay on UO-31 renal; 2.41 µM in the assay with P388/ADR leukemia; 3.37 µM in the assay on XF 498 CNS. Besides, the TGI is 1.29 µM with RXF 393 renal; 7.38 µM in the assay on SNB-75 CNS; 15.4 µM in the assay with KM20L2 colon; 4.38 µM with M19-MEL melanoma; 23.6 µM with SNB-78 CNS; 3.22 µM in the assay on SN12K1 renal. In addition, the TGI in the assay on DMS 273 small cell lung turned out to be 39.9 µM; with DLD-1 colon it was 2.94 µM.
On to `CCc1ncc(C(C)(O)c2ccccc2)n1Cc1ccccc1` (stereo unspecified), for which the TGI in the assay with BT-549 breast is above 100 µM; in the assay with NCI-H522 lung it was above 100 µM; in the assay on MDA-MB-435, 48.1 µM; in the assay with UO-31 renal, above 100 µM; with RXF 393 renal, above 100 µM; with SNB-75 CNS, above 100 µM. Besides, the TGI in the assay on HS 578T breast is above 100 µM.
Consider `Cc1ccc(C(=O)N/N=C(\N=Nc2ccccc2)c2ccc(N(CCC#N)CCC#N)cc2C)cc1`, for which the TGI in the assay with HL-60(TB) leukemia was above 100 µM; in the assay with NCI-H522 lung, 61.3 µM; in the assay on MDA-MB-435, above 100 µM; in the assay with UO-31 renal, above 100 µM; with RXF 393 renal it was above 100 µM; with SNB-75 CNS, above 100 µM. In the assay on HS 578T breast, this molecule gave a TGI above 100 µM.
